Tests used:
Assay in all cases: 33PanQinase kinome-wide selectivity profile (Reaction Biology)
Assay type in all cases: biochemical
350 wild-type kinases [1] = molecular target: T1, 350 wild-type kinases (Homo sapiens, UniProt P78368); details: kinase CK1gamma2, ATP 0,1 µM, singlicate
T1 construct: purchased Reaction Biology (assay service)
Procedure: (§1) Compound RN341 was tested at two concentrations of 1 and 10 μM against a panel of 350 wild-type kinases in the ^33PanQinase assay. The assay was performed by Reaction Biology (www.reactionbiology.com/services/kinase-assays/kinase-panel-screening/).

350 wild-type kinases [2] = molecular target: T2, 350 wild-type kinases (Homo sapiens, UniProt P48730); details: kinase CK1delta, ATP 0,3 µM, singlicate
T2 construct: purchased Reaction Biology (assay service)
Procedure: as §1

350 wild-type kinases [3] = molecular target: T3, 350 wild-type kinases (Homo sapiens, UniProt Q5VT25); details: kinase CDC42BPA, ATP 0,1 µM, singlicate
T3 construct: purchased Reaction Biology (assay service)
Procedure: as §1

350 wild-type kinases [4] = molecular target: T4, 350 wild-type kinases (Homo sapiens, UniProt Q00536); details: kinase CDK16/CycY, ATP 0,3 µM, singlicate
T4 construct: purchased Reaction Biology (assay service)
Procedure: as §1

350 wild-type kinases [5] = molecular target: T5, 350 wild-type kinases (Homo sapiens, UniProt P68400); details: kinase CK2alpha1, ATP 0,1 µM, singlicate
T5 construct: purchased Reaction Biology (assay service)
Procedure: as §1

350 wild-type kinases [6] = molecular target: T6, 350 wild-type kinases (Homo sapiens, UniProt P33981); details: 1 μM, TTK; read-out: TTK activity, % of control
T6 construct: purchased Reaction Biology (assay service)
Procedure: as §1

350 wild-type kinases [7] = molecular target: T7, 350 wild-type kinases (Homo sapiens, UniProt Q13555); details: kinase CAMK2G, ATP 1 µM, singlicate
T7 construct: purchased Reaction Biology (assay service)
Procedure: as §1

350 wild-type kinases [8] = molecular target: T8, 350 wild-type kinases (Homo sapiens, UniProt P53355); details: kinase DAPK1, ATP 0,1 µM, singlicate
T8 construct: purchased Reaction Biology (assay service)
Procedure: as §1

350 wild-type kinases [9] = molecular target: T9, 350 wild-type kinases (Homo sapiens, UniProt P36894); details: kinase BMPR1A, ATP 3 µM, singlicate
T9 construct: purchased Reaction Biology (assay service)
Procedure: as §1

350 wild-type kinases [10] = molecular target: T10, 350 wild-type kinases (Homo sapiens, UniProt Q9Y243); details: kinase AKT3, ATP 3 µM, singlicate
T10 construct: purchased Reaction Biology (assay service)
Procedure: as §1

350 wild-type kinases [11] = molecular target: T11, 350 wild-type kinases (Homo sapiens, UniProt Q96GD4); details: kinase AuroraB, ATP 10 µM, singlicate
T11 construct: purchased Reaction Biology (assay service)
Procedure: as §1

350 wild-type kinases [12] = molecular target: T12, 350 wild-type kinases (Homo sapiens, UniProt O00311); details: kinase CDC7/DBF4, ATP 0,1 µM, singlicate
T12 construct: purchased Reaction Biology (assay service)
Procedure: as §1

350 wild-type kinases [13] = molecular target: T13, 350 wild-type kinases (Homo sapiens, UniProt Q9NYV4); details: kinase CDK12/CycK, ATP 0,3 µM, singlicate
T13 construct: purchased Reaction Biology (assay service)
Procedure: as §1

350 wild-type kinases [14] = molecular target: T14, 350 wild-type kinases (Homo sapiens, UniProt P78527); details: kinase DNAPK, ATP 1 µM, singlicate
T14 construct: purchased Reaction Biology (assay service)
Procedure: as §1

350 wild-type kinases [15] = molecular target: T15, 350 wild-type kinases (Homo sapiens, UniProt Q13131); details: kinase AMPKalpha1, ATP 3 µM, singlicate
T15 construct: purchased Reaction Biology (assay service)
Procedure: as §1

350 wild-type kinases [16] = molecular target: T16, 350 wild-type kinases (Homo sapiens, UniProt P37023); details: kinase ACVRL1, ATP 1 µM, singlicate
T16 construct: purchased Reaction Biology (assay service)
Procedure: as §1

350 wild-type kinases [17] = molecular target: T17, 350 wild-type kinases (Homo sapiens, UniProt Q13557); details: kinase CAMK2D, ATP 1 µM, singlicate
T17 construct: purchased Reaction Biology (assay service)
Procedure: as §1

350 wild-type kinases [18] = molecular target: T18, 350 wild-type kinases (Homo sapiens, UniProt Q8TDC3); details: kinase BRSK1, ATP 1 µM, singlicate
T18 construct: purchased Reaction Biology (assay service)
Procedure: as §1

350 wild-type kinases [19] = molecular target: T19, 350 wild-type kinases (Homo sapiens, UniProt O14757); details: kinase CHK1, ATP 1 µM, singlicate
T19 construct: purchased Reaction Biology (assay service)
Procedure: as §1

350 wild-type kinases [20] = molecular target: T20, 350 wild-type kinases (Homo sapiens, UniProt Q13705); details: kinase ACVR2B, ATP 1 µM, singlicate
T20 construct: purchased Reaction Biology (assay service)
Procedure: as §1

350 wild-type kinases [21] = molecular target: T21, 350 wild-type kinases (Homo sapiens, UniProt O60285); details: kinase ARK5, ATP 3 µM, singlicate
T21 construct: purchased Reaction Biology (assay service)
Procedure: as §1

350 wild-type kinases [22] = molecular target: T22, 350 wild-type kinases (Homo sapiens, UniProt Q9Y5S2); details: kinase CDC42BPB, ATP 0,1 µM, singlicate
T22 construct: purchased Reaction Biology (assay service)
Procedure: as §1

350 wild-type kinases [23] = molecular target: T23, 350 wild-type kinases (Homo sapiens, UniProt P49674); details: kinase CK1epsilon, ATP 0,3 µM, singlicate
T23 construct: purchased Reaction Biology (assay service)
Procedure: as §1

350 wild-type kinases [24] = molecular target: T24, 350 wild-type kinases (Homo sapiens, UniProt Q9UIK4); details: kinase DAPK2, ATP 0,1 µM, singlicate
T24 construct: purchased Reaction Biology (assay service)
Procedure: as §1

T5 sequence (P68400 whole entry): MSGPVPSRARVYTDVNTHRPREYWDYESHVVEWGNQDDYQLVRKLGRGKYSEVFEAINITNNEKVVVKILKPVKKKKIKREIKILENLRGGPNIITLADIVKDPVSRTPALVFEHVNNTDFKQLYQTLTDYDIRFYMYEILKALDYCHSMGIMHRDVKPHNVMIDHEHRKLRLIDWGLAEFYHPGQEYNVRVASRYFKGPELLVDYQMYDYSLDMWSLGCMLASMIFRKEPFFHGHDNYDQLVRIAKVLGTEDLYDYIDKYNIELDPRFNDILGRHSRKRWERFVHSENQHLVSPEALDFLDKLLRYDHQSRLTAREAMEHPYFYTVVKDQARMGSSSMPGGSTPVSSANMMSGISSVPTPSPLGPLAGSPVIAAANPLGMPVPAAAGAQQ
T15 sequence (Q13131 whole entry): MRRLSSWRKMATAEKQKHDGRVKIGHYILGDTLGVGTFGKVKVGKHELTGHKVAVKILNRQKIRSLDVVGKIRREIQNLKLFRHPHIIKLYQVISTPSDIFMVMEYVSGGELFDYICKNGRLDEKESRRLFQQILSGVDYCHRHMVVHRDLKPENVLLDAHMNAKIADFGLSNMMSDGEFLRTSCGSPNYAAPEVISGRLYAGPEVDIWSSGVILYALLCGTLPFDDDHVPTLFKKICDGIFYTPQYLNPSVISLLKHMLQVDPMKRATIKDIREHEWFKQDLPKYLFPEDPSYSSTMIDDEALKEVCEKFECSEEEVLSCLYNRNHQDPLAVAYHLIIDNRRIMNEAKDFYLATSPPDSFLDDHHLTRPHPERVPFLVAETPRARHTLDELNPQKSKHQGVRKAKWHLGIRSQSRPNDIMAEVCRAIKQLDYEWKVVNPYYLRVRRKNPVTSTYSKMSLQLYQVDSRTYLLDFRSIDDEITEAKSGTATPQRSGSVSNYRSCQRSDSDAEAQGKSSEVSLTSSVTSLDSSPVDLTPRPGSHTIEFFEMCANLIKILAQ
T10 sequence (Q9Y243 whole entry): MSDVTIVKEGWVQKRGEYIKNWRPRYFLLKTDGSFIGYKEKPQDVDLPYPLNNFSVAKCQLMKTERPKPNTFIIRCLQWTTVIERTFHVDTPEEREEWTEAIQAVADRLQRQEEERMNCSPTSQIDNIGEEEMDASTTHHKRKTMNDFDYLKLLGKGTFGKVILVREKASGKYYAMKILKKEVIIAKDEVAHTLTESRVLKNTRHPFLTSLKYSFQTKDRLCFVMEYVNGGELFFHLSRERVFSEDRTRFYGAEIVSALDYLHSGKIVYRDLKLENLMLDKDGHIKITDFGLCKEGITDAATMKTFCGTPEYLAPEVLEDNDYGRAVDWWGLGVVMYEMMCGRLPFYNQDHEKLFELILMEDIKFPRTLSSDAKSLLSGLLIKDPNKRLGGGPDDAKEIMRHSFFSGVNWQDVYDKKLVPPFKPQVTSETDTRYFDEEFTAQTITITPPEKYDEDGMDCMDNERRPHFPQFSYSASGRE
T3 sequence (Q5VT25 whole entry): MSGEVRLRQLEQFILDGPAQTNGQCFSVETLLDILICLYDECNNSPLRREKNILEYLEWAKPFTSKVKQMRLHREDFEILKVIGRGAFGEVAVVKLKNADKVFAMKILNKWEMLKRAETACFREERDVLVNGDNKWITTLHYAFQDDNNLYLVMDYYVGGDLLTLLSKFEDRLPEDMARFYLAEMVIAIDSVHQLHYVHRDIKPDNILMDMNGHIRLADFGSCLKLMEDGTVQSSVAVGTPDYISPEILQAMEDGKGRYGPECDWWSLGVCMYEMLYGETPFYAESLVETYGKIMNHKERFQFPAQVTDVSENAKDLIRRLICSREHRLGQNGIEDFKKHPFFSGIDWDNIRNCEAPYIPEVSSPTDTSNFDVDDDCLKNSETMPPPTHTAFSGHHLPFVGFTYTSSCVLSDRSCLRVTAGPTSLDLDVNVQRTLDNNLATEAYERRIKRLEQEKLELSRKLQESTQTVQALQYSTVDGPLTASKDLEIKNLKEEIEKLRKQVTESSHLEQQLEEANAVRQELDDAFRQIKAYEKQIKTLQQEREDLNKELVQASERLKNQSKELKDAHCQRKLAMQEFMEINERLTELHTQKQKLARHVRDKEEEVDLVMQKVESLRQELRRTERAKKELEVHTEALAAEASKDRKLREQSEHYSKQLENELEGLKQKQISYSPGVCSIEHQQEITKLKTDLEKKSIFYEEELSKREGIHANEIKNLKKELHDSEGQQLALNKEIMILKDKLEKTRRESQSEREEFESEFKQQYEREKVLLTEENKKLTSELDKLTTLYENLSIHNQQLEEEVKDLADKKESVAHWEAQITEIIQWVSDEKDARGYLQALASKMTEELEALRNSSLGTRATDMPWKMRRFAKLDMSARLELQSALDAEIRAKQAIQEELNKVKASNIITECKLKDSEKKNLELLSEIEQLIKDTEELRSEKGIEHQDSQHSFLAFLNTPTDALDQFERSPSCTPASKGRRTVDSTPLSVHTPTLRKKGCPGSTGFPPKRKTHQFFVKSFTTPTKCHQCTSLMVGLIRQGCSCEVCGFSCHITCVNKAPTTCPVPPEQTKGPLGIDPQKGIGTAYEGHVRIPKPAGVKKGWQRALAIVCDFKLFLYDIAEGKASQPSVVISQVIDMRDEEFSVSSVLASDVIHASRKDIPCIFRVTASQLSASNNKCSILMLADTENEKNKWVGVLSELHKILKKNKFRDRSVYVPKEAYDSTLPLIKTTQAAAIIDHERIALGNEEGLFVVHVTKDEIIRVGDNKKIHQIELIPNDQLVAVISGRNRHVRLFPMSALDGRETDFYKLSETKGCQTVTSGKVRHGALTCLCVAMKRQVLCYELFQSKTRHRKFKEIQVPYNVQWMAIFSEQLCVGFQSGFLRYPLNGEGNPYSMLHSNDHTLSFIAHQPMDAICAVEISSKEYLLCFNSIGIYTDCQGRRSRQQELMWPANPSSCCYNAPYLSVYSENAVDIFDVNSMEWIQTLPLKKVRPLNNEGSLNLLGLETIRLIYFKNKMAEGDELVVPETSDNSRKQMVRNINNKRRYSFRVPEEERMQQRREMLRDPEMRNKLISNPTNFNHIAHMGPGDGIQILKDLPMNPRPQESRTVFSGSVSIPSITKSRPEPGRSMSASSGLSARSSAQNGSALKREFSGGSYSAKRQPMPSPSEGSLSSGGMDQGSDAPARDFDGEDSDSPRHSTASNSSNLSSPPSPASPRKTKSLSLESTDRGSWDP
T21 sequence (O60285 whole entry): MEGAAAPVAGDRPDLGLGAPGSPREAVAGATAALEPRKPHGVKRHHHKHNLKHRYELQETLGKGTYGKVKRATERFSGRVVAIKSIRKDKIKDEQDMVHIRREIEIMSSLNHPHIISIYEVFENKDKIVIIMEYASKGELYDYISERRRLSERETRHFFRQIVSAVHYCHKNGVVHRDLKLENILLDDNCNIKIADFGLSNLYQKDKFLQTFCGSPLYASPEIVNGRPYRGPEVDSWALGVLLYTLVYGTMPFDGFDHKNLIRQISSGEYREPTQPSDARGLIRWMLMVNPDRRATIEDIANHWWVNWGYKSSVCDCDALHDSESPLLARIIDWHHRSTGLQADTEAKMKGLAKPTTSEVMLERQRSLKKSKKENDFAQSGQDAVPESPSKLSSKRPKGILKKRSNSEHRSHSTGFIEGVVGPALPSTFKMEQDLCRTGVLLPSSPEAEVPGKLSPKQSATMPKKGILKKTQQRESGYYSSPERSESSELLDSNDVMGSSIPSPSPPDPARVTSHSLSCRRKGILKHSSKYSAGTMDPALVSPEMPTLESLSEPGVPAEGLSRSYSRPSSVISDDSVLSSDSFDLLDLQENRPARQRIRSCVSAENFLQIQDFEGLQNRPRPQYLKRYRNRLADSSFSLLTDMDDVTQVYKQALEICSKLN
T2 sequence (P48730 whole entry): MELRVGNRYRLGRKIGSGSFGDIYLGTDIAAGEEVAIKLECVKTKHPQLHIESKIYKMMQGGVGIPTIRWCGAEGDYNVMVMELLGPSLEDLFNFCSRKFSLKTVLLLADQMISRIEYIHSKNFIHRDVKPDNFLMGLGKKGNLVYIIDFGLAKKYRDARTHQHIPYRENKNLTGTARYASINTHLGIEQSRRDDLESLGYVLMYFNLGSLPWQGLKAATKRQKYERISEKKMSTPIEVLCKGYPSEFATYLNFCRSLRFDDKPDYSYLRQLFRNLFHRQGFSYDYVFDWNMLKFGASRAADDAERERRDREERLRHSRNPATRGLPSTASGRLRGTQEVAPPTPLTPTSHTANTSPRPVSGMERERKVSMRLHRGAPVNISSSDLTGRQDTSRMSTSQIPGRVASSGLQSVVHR
T19 sequence (O14757 whole entry): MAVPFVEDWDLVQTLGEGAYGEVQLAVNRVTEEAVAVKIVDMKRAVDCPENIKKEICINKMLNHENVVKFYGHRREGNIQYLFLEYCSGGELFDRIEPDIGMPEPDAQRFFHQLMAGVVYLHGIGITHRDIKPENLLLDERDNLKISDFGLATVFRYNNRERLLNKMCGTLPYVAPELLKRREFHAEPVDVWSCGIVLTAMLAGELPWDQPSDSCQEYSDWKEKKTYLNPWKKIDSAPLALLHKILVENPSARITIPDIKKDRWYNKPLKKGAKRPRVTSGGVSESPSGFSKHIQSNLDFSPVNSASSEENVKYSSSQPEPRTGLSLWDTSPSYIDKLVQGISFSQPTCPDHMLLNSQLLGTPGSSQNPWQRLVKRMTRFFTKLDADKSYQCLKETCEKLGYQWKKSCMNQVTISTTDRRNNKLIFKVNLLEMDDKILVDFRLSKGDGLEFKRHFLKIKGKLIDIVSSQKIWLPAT

CCSc1nc(NC)c2c(-c3cccc(NC(=O)Nc4cc(C(C)(C)C)nn4-c4ccc(C)cc4)c3)c[nH]c2n1 [Compound 32]
Residual activity (% of control), CK1gamma2 (350 wild-type kinases [1]; Assay Conc. 1.0E-05 M): 88 % of control | Residual activity (% of control), CK1gamma2 (350 wild-type kinases [1]; Assay Conc. 1.0E-06 M): 102 % of control | Residual activity (% of control), CK1delta (350 wild-type kinases [2]; Assay Conc. 1.0E-05 M): 85 % of control | Residual activity (% of control), CK1delta (350 wild-type kinases [2]; Assay Conc. 1.0E-06 M): 98 % of control | Residual activity (% of control), CDC42BPA (350 wild-type kinases [3]; Assay Conc. 1.0E-05 M): 111 % of control | Residual activity (% of control), CDC42BPA (350 wild-type kinases [3]; Assay Conc. 1.0E-06 M): 122 % of control | Residual activity (% of control), CDK16/CycY (350 wild-type kinases [4]; Assay Conc. 1.0E-05 M): 88 % of control | Residual activity (% of control), CDK16/CycY (350 wild-type kinases [4]; Assay Conc. 1.0E-06 M): 113 % of control | Residual activity (% of control), CK2alpha1 (350 wild-type kinases [5]; Assay Conc. 1.0E-05 M): 82 % of control | Residual activity (% of control), CK2alpha1 (350 wild-type kinases [5]; Assay Conc. 1.0E-06 M): 102 % of control | remaining activity at 1 µM (350 wild-type kinases [6]): < 50% | Residual activity (% of control), CAMK2G (350 wild-type kinases [7]; Assay Conc. 1.0E-05 M): 122 % of control | Residual activity (% of control), CAMK2G (350 wild-type kinases [7]; Assay Conc. 1.0E-06 M): 106 % of control | Residual activity (% of control), DAPK1 (350 wild-type kinases [8]; Assay Conc. 1.0E-05 M): 78 % of control | Residual activity (% of control), DAPK1 (350 wild-type kinases [8]; Assay Conc. 1.0E-06 M): 95 % of control | Residual activity (% of control), BMPR1A (350 wild-type kinases [9]; Assay Conc. 1.0E-05 M): 85 % of control | Residual activity (% of control), BMPR1A (350 wild-type kinases [9]; Assay Conc. 1.0E-06 M): 97 % of control | Residual activity (% of control), AKT3 (350 wild-type kinases [10]; Assay Conc. 1.0E-05 M): 113 % of control | Residual activity (% of control), AKT3 (350 wild-type kinases [10]; Assay Conc. 1.0E-06 M): 115 % of control | Residual activity (% of control), AuroraB (350 wild-type kinases [11]; Assay Conc. 1.0E-05 M): 74 % of control | Residual activity (% of control), AuroraB (350 wild-type kinases [11]; Assay Conc. 1.0E-06 M): 107 % of control | Residual activity (% of control), CDC7/DBF4 (350 wild-type kinases [12]; Assay Conc. 1.0E-05 M): 50 % of control | Residual activity (% of control), CDC7/DBF4 (350 wild-type kinases [12]; Assay Conc. 1.0E-06 M): 89 % of control | Residual activity (% of control), CDK12/CycK (350 wild-type kinases [13]; Assay Conc. 1.0E-05 M): 87 % of control | Residual activity (% of control), CDK12/CycK (350 wild-type kinases [13]; Assay Conc. 1.0E-06 M): 99 % of control | Residual activity (% of control), DNAPK (350 wild-type kinases [14]; Assay Conc. 1.0E-05 M): 82 % of control | Residual activity (% of control), DNAPK (350 wild-type kinases [14]; Assay Conc. 1.0E-06 M): 99 % of control | Residual activity (% of control), AMPKalpha1 (350 wild-type kinases [15]; Assay Conc. 1.0E-05 M): 85 % of control | Residual activity (% of control), AMPKalpha1 (350 wild-type kinases [15]; Assay Conc. 1.0E-06 M): 95 % of control | Residual activity (% of control), ACVRL1 (350 wild-type kinases [16]; Assay Conc. 1.0E-05 M): 80 % of control | Residual activity (% of control), ACVRL1 (350 wild-type kinases [16]; Assay Conc. 1.0E-06 M): 97 % of control | Residual activity (% of control), CAMK2D (350 wild-type kinases [17]; Assay Conc. 1.0E-05 M): 67 % of control | Residual activity (% of control), CAMK2D (350 wild-type kinases [17]; Assay Conc. 1.0E-06 M): 104 % of control | Residual activity (% of control), BRSK1 (350 wild-type kinases [18]; Assay Conc. 1.0E-05 M): 89 % of control | Residual activity (% of control), BRSK1 (350 wild-type kinases [18]; Assay Conc. 1.0E-06 M): 101 % of control | Residual activity (% of control), CHK1 (350 wild-type kinases [19]; Assay Conc. 1.0E-05 M): 72 % of control | Residual activity (% of control), CHK1 (350 wild-type kinases [19]; Assay Conc. 1.0E-06 M): 110 % of control | Residual activity (% of control), ACVR2B (350 wild-type kinases [20]; Assay Conc. 1.0E-05 M): 98 % of control | Residual activity (% of control), ACVR2B (350 wild-type kinases [20]; Assay Conc. 1.0E-06 M): 123 % of control | Residual activity (% of control), ARK5 (350 wild-type kinases [21]; Assay Conc. 1.0E-05 M): 99 % of control | Residual activity (% of control), ARK5 (350 wild-type kinases [21]; Assay Conc. 1.0E-06 M): 105 % of control | Residual activity (% of control), CDC42BPB (350 wild-type kinases [22]; Assay Conc. 1.0E-05 M): 57 % of control | Residual activity (% of control), CDC42BPB (350 wild-type kinases [22]; Assay Conc. 1.0E-06 M): 84 % of control | Residual activity (% of control), CK1epsilon (350 wild-type kinases [23]; Assay Conc. 1.0E-05 M): 74 % of control | Residual activity (% of control), CK1epsilon (350 wild-type kinases [23]; Assay Conc. 1.0E-06 M): 97 % of control | Residual activity (% of control), DAPK2 (350 wild-type kinases [24]; Assay Conc. 1.0E-05 M): 88 % of control | Residual activity (% of control), DAPK2 (350 wild-type kinases [24]; Assay Conc. 1.0E-06 M): 93 % of control

Source: article PMC12136037, “Type II kinase inhibitors that target Parkinson’s disease–associated LRRK2” (Science Advances, 2025)
